From patent US9464064B2, “HCV helicase inhibitors and methods of use thereof” (University of Kansas, priority 2011, dated 2016)
Where two headings read alike, the source gives them in different places.

What was measured:
[1] = Aqueous solubility (direct UV kinetic); type: physicochemical; conditions: kinetic from dmso stock
Protocol: Solubility analysis was performed using a direct UV kinetic solubility method in a 96-well format. All liquid dispense and transfer steps were performed with the FREEDOM EVO automated liquid handler (Tecan, US). Solubility measurements were performed in an aqueous buffer solution (PRISMA HT, pION Inc.) at pH 5.0, 6.2 and 7.4, in duplicate. Solubility measurements were also performed in 1×PBS pH 7.4, and in MOPS buffer pH 6.5. Samples were incubated at room temperature for a minimum of […] to achieve equilibrium, then filtered to remove any precipitate formed. The concentration of the compounds was measured by UV absorbance (250-498 nm) using the […] M200 (Tecan, US) and compared to the spectra of the precipitation-free reference solutions. Spectroscopically pure 1-Propanol (Sigma) was used as a cosolvent to suppress precipitation in the reference solutions. The solubility of each compound was determined using pSOL Evolution Plus software v3.2 (pION Inc) and was expressed as the concentration (μg/mL) of a solute in a saturated solution. Diclofenac Na (highly soluble) and Dipyridamole (poorly to moderately soluble) were used as standards. Standards and test compound stocks were made in 100% DMSO. […]

[2] = Absorbance and fluorescence properties; type: physicochemical; conditions: for Absorbance ∈: extinction coefficient
Text: Most of the compounds isolated from the two yellow dyes were fluorescent, absorbing light around 340 nm, and emitting near 420 nm. Their extinction coefficient and peak absorption wavelengths increased as the length of the benzothiazole oligomer increased. Their relative fluorescence decreased with the length of the benzothiazole chain. None of the compounds absorbed light near either the absorption or emission wavelengths of the Cy5-labeled MBHA substrate, or the wavelengths where the fluorescence of ethidium bromide stained DNA, SYBER green I-stained DNA, NS3-catalyzed peptide cleavage, or ATP hydrolysis were measured.
When directly compared with P4, the semi-synthetic primuline derivatives have a sharper absorbance peak centered near 360 nm, and they emit 3-15 times more light when excited at their absorbance maximum. […] Some compounds, like 12, stained both the cytoplasm and nucleus, but they also stained glass coverslips.

[3] = molecular target: T1, scNS4A-NS3p (UniProt P26663); test: NS3 protease assay (ENZOLYTE 520), protease fragment; type: biochemical, hepatitis C virus genotype 1b; conditions: read-out: Protease ScNS4a-NS3p IC50 (μM) ± SD; one set of assays
T1 construct: fused on or other part: NS4A cofactor peptide, from the same polyprotein, fused to the NS3 protease fragment
Protocol: All oligonucleotides were purchased from Integrated DNA Technologies (IDT, Coralville, Iowa). Primuline derivatives were synthesized and purified as described herein. Three different NS3 proteins were used in this study. Two were truncated C-terminally His-tagged NS3 proteins lacking the N-terminal protease, called NS3h, the third was a full-length NS3 with the portion of NS4A needed for protease activation fused to its N-terminus, called scNS4A-NS3 (Howe, et al. (1999) Protein Sci. 8:1332-41), and the fourth was a 23 kDa scNS4A-NS3 protease fragment lacking the helicase domains, called scNS4A-NS3p (Protein One, Rockville, Md.). NS3h was expressed from two different HCV strains. NS3h_1b(con1) was from the con1 strain of genotype 1b (GENBANK accession AB114136), and NS3h_2a(JFH1) was from the JFH1 strain of HCV genotype 2a (GENBANK accession AJ238799). […] His-tagged recombinant NS3h_1b(con1), NS3h_2a(JFH1), and scNS4A-NS3 (also from genotype 1b(con1)) were expressed, and purified as previously described (Frick, et al. (2010) supra; Lam, et al. (2003) J. Virol. 77:3950-3961). The scNS4A-NS3p (genotype 1b) was from Protein One. A plasmid expressing NS3h from dengue virus strain 2 (NS3h_DV2)(GENBANK accession 2BMF) is known in the art (Xu, et al. (2005) J. Virol. 79:10278-10288), and used to express and purify NS3h_DV2 (Belon, et al. (2010) supra)
All NS3 protease assays were carried out using the 5-Carboxyfluorescein-labeled substrate from the AnaSpec. ENZOLYTE 520 Protease Assay Kit (AnaSpec, San Jose, Calif.). Each assay contained 5 nM scNS4A-NS3 or 50 nM scNS4A-NS3p, […], 5% DMSO and 1× Anaspec HCV protease assay buffer. Assays were carried out in a total volume of 20 μl in black 384-well plates with fluorescence at 520 nm measured using a BMG FLUOstar Omega fluorescence spectrophotometer. Reactions were performed with eight concentrations of a two-fold dilution series of each compound (in duplicate) starting at 100 μM.

[4] = aqueous with cosolvent or surfactant or cyclodextrin, mock assay matrix (MOPS, TWEEN 20, 5% DMSO) at pH 6.5, read-out: solubility

T1 sequence (P26663 1027-1657): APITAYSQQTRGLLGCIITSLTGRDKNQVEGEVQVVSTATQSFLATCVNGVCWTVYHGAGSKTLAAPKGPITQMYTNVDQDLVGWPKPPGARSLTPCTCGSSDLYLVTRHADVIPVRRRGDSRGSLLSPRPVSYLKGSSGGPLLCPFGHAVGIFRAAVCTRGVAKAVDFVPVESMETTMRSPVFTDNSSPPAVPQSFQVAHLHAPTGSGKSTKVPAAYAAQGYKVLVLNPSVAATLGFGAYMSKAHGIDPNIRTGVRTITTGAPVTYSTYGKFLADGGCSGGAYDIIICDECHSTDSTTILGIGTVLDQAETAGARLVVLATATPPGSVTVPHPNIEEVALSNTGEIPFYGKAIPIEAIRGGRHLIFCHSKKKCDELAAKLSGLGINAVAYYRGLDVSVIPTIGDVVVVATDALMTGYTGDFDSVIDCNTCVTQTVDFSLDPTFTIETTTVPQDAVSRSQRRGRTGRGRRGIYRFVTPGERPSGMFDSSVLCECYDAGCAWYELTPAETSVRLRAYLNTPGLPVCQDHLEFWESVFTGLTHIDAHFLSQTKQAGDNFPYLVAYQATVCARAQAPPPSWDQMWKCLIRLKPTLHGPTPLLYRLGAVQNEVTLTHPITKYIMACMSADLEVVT

Compound	solubility [1, 4] [µM]	Absorbance λmax [2] [nm]	Fluorescence Emmax [2] [nm]	Fluorescence RFU@ 10 μM [2] [RFU]	Absorbance ∈ [2]	IC50 [3] [µM]	solubility ([1]; aqueous buffer, MOPS buffer (25 mM MOPS, 1.25 mM MgCl2, 2% DMSO) at pH 6.5, read-out: solubility) [µM]	solubility ([1]; 1×PBS, pH 7.4, aqueous buffer, read-out: Aqueous Solubility, PBS) [µg/mL]	solubility ([1]; PRISMA HT aqueous buffer, aqueous buffer, pH 5.0, read-out: Aqueous Solubility, Prisma HT buffer) [µg/mL]	solubility ([1]; PRISMA HT aqueous buffer, pH 6.2, aqueous buffer, read-out: Aqueous Solubility, Prisma HT buffer) [µg/mL]	solubility ([1]; PRISMA HT aqueous buffer, pH 7.4, aqueous buffer, read-out: Aqueous Solubility, Prisma HT buffer) [µg/mL]	solubility ([1]; mock assay matrix with TWEEN 20, 5% DMSO, pH 6.5, aqueous with cosolvent or surfactant or cyclodextrin, read-out: Aqueous Solubility, Assay Matrix) [µg/mL]
Cc1ccc2nc(-c3ccc4nc(-c5ccc(NC(=O)c6cc(C(F)(F)F)cc(C(F)(F)F)c6)cc5)sc4c3)sc2c1S(=O)(=O)O [Compound 24, 2′-(4-(3,5-bis(trifluoromethyl)benzamido)phenyl)-6-methyl-[2,6′-bibenzo[d]thiazole]-7-sulfonic acid]	180	355	497	121	45,650 M^−1cm^−1	7.6						
Cc1ccc2nc(-c3ccc4nc(-c5ccc(NC(=O)c6cccnc6)cc5)sc4c3)sc2c1S(=O)(=O)O [Compound 31, 6-methyl-2′-(4-(nicotinamido)phenyl)-[2,6′-bibenzo[d]thiazole]-7-sulfonic acid]							> 100					
Cc1ccc2nc(-c3ccc4nc(-c5ccc(NC(=O)c6ccc(Br)cc6)cc5)sc4c3)sc2c1S(=O)(=O)O [Compound 15, 2′-(4-(4-bromobenzamido)phenyl)-6-methyl-[2,6′-bibenzo[d]thiazole]-7-sulfonic acid]		356	497	209	51,600 M^−1cm^−1	6.5						
Cc1ccc2nc(-c3ccc4nc(-c5ccc(NC(=O)c6ccc(C(C)(C)C)cc6)cc5)sc4c3)sc2c1S(=O)(=O)O [Compound 13, 2′-(4-(4-(tert-butyl)benzamido)phenyl)-6-methyl-[2,6′-bibenzo[d]thiazole]-7-sulfonic acid]		356	502	164	37,150 M^−1cm^−1	93						
Cc1ccc2nc(-c3ccc4nc(-c5ccc(N)cc5)sc4c3)sc2c1S(=O)(=O)O [Compound P2a, 2′-(4-aminophenyl)-6-methyl-[2,6′-bibenzo[d]thiazole]-7-sulfonic acid]		366	553	15	38,550 M^−1cm^−1	> 100						
Cc1ccc2nc(-c3ccc4nc(-c5ccc(NC(=O)c6ccc(Cl)c(Cl)c6)cc5)sc4c3)sc2c1S(=O)(=O)O [Compound 18, 2′-(4-(3,4-dichlorobenzamido)phenyl)-6-methyl-[2,6′-bibenzo[d]thiazole]-7-sulfonic acid]	2.6	356	501	203	44,000 M^−1cm^−1	6.4						
Cc1ccc2nc(-c3ccc4nc(-c5ccc6nc(-c7ccc8nc(-c9ccc(N)cc9)sc8c7)sc6c5)sc4c3)sc2c1S(=O)(=O)O [Compound P4, 2′″-(4-aminophenyl)-6-methyl-[2,6′:2″,6′″-quaterbenzo[d]thiazole]-7-sulfonic acid]		382	467	3	32,000 M^−1cm^−1	4.9						
Cc1ccc2nc(-c3ccc4nc(-c5ccc(NC(=O)c6ccc(N)cc6)cc5)sc4c3)sc2c1S(=O)(=O)O [Compound 6, 2′-(4-(4-aminobenzamido)phenyl)-6-methyl-[2,6′-bibenzo[d]thiazole]-7-sulfonic acid]		360	429	4	36,600 M^−1cm^−1							
Cc1ccc2nc(-c3ccc4nc(-c5ccc(NC(=O)c6ccc(F)cc6)cc5)sc4c3)sc2c1S(=O)(=O)O.N [Compound 7, 2′-(4-(4-fluorobenzamido)phenyl)-6-methyl-[2, bibenzo[d]thiazole]-7-sulfonic acid]	129	356	496	111	24,950 M^−1cm^−1	> 100						
Cc1ccc2nc(-c3ccc4nc(-c5ccc(NC(=O)c6ccc(C(F)(F)F)cc6)cc5)sc4c3)sc2c1S(=O)(=O)O [Compound 12, 6-methyl-2′-(4-(4-(trifluoromethyl)benzamido)phenyl)-[2,6′-bibenzo[d]thiazole]-7-sulfonic acid]		356	498	158	42,750 M^−1cm^−1	7						
Cc1ccc2nc(-c3ccc4nc(-c5ccc(NC(=O)c6ccc7nc(-c8ccc(N)cc8)sc7c6)cc5)sc4c3)sc2c1S(=O)(=O)O [Compound 35, 2′-(4-(2-(4-aminophenyl)benzo[d]thiazole-6-carboxamido)phenyl)-6-methyl-[2,6′-bibenzo[d]thiazole]-7-sulfonic acid]		361	532	2	42,000 M^−1cm^−1	20						
Cc1ccc2nc(-c3ccc4nc(-c5ccc(NC(=O)c6cccc(Cl)c6)cc5)sc4c3)sc2c1S(=O)(=O)O [Compound 17, 2′-(4-(3-chlorobenzamido)phenyl)-6-methyl-[2,6′-bibenzo[d]thiazole]-7-sulfonic acid]	29.2	356	502	215	59,500 M^−1cm^−1	24		0.12	36.7	> 60	> 60	17.8
Cc1ccc2nc(-c3ccc4nc(-c5ccc(NC(=O)c6ccc7ccccc7c6)cc5)sc4c3)sc2c1S(=O)(=O)O [Compound 33, 2′-(4-(2-naphthamido)phenyl)-6-methyl-[2,6′-bibenzo[d]thiazole]-7-sulfonic acid]	3.7	359	496	236	63,450 M^−1cm^−1	> 100						
Cc1ccc2nc(-c3ccc4nc(-c5ccc(NC(=O)c6cc(C(F)(F)F)ccc6F)cc5)sc4c3)sc2c1S(=O)(=O)O [Compound 25, 2′-(4-(2-fluoro-5-(trifluoromethyl)benzamido)phenyl)-6-methyl-[2,6′-bibenzo[d]thiazole]-7-sulfonic acid]		355	497	159	41,750 M^−1cm^−1	> 100						
